{"source": "ChEMBL document CHEMBL4507319", "about": "(2021)", "key": {"[1]": {"biological_target": "Serine/threonine-protein kinase WNK2 (Homo sapiens) (UniProt Q9Y3S1)", "assay": "WNK2(h) Eurofins kinase panel", "conditions": "Compound concentration 1.0 uM"}, "[2]": {"biological_target": "T1, Serine/threonine-protein kinase D1 (Homo sapiens) (UniProt Q15139)", "T1 sequence (whole entry)": "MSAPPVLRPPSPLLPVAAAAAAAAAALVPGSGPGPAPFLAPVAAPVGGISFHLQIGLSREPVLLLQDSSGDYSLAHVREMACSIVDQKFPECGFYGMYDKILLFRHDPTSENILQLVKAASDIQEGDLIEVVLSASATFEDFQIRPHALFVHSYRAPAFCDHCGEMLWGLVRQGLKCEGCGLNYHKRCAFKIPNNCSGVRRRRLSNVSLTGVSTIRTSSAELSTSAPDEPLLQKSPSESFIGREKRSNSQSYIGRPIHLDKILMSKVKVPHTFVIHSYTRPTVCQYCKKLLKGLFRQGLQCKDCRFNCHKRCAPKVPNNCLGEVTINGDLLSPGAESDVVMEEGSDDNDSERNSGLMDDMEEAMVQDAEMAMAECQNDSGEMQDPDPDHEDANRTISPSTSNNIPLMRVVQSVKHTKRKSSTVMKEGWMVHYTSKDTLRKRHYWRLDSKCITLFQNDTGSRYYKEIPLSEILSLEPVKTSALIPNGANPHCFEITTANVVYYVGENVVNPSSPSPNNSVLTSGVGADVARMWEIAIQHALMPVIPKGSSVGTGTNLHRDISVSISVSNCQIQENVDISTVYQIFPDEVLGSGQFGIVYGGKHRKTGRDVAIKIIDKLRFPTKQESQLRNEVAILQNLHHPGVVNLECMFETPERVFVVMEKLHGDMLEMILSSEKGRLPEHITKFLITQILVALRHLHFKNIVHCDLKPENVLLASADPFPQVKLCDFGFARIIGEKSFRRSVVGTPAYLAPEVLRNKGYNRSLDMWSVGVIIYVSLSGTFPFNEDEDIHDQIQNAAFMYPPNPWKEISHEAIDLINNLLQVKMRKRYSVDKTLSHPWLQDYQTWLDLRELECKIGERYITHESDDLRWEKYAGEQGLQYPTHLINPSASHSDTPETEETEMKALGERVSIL", "assay": "PKCmu (h) Eurofins kinase panel", "conditions": "Compound concentration 1.0 uM"}, "[3]": {"biological_target": "Protein kinase C alpha type (Homo sapiens) (UniProt P17252)", "assay": "PKCalpha (h) Eurofins kinase panel", "conditions": "Compound concentration 1.0 uM"}, "[4]": {"biological_target": "Tyrosine-protein kinase JAK1 (Homo sapiens) (UniProt P23458)", "sequence (P23458 whole entry)": "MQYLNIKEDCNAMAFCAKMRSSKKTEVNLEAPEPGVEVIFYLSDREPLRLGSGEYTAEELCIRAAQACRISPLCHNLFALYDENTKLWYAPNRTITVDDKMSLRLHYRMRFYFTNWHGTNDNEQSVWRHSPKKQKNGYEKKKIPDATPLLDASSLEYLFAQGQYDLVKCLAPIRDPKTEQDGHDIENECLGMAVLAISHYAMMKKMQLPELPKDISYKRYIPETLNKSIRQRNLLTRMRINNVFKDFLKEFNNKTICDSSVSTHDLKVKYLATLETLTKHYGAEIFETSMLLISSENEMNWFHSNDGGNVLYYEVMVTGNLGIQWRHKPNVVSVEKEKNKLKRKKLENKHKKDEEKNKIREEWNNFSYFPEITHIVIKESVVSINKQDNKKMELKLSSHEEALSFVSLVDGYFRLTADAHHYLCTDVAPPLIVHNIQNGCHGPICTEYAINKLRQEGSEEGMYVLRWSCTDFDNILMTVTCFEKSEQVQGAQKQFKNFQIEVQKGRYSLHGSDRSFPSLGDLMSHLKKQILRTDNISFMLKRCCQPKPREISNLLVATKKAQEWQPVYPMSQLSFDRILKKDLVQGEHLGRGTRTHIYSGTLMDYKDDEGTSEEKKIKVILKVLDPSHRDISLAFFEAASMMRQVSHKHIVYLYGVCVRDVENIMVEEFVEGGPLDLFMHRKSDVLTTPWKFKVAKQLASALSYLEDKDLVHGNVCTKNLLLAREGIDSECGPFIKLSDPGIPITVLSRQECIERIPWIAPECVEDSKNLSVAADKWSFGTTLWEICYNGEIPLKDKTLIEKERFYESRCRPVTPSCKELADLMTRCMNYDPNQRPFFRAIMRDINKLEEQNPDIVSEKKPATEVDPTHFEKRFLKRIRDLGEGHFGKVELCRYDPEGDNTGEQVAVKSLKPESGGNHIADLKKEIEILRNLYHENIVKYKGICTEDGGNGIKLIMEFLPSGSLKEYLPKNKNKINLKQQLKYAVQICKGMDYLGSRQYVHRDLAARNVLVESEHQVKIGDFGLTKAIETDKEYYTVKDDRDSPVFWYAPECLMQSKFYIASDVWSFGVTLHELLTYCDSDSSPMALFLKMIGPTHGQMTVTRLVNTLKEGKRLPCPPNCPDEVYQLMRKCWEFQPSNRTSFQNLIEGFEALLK", "assay": "JAK1(h) Eurofins kinase panel", "conditions": "Compound concentration 1.0 uM"}, "[5]": {"biological_target": "Leukocyte tyrosine kinase receptor (Homo sapiens) (UniProt P29376)", "sequence (P29376 whole entry)": "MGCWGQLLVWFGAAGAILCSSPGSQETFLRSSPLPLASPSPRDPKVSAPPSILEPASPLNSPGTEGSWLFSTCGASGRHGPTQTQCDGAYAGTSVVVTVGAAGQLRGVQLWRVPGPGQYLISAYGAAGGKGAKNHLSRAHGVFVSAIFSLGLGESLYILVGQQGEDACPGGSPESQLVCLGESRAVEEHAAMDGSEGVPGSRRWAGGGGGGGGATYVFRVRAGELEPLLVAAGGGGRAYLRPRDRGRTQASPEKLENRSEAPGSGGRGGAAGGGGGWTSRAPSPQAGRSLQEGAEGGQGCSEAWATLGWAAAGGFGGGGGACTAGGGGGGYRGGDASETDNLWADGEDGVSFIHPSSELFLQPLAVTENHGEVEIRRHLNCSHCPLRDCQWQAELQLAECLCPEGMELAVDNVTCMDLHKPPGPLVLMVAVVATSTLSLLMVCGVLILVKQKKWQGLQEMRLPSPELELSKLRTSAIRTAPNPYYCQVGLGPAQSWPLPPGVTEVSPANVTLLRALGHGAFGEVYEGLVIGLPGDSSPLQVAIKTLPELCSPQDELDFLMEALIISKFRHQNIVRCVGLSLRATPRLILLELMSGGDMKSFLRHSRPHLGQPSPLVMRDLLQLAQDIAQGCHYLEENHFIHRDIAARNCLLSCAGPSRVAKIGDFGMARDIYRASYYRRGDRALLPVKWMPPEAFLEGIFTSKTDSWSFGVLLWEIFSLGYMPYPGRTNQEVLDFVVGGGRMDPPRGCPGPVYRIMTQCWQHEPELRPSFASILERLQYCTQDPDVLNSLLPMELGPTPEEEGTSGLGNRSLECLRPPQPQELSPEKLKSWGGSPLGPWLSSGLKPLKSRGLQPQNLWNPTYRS", "assay": "LTK(h) Eurofins kinase panel", "conditions": "Compound concentration 1.0 uM"}, "[6]": {"biological_target": "Ribosomal protein S6 kinase beta-1 (Homo sapiens) (UniProt P23443)", "assay": "p70S6K(h) Eurofins kinase panel", "conditions": "Compound concentration 1.0 uM"}, "[7]": {"biological_target": "Eukaryotic translation initiation factor 2-alpha kinase 3 (Homo sapiens) (UniProt Q9NZJ5)", "sequence (Q9NZJ5 whole entry)": "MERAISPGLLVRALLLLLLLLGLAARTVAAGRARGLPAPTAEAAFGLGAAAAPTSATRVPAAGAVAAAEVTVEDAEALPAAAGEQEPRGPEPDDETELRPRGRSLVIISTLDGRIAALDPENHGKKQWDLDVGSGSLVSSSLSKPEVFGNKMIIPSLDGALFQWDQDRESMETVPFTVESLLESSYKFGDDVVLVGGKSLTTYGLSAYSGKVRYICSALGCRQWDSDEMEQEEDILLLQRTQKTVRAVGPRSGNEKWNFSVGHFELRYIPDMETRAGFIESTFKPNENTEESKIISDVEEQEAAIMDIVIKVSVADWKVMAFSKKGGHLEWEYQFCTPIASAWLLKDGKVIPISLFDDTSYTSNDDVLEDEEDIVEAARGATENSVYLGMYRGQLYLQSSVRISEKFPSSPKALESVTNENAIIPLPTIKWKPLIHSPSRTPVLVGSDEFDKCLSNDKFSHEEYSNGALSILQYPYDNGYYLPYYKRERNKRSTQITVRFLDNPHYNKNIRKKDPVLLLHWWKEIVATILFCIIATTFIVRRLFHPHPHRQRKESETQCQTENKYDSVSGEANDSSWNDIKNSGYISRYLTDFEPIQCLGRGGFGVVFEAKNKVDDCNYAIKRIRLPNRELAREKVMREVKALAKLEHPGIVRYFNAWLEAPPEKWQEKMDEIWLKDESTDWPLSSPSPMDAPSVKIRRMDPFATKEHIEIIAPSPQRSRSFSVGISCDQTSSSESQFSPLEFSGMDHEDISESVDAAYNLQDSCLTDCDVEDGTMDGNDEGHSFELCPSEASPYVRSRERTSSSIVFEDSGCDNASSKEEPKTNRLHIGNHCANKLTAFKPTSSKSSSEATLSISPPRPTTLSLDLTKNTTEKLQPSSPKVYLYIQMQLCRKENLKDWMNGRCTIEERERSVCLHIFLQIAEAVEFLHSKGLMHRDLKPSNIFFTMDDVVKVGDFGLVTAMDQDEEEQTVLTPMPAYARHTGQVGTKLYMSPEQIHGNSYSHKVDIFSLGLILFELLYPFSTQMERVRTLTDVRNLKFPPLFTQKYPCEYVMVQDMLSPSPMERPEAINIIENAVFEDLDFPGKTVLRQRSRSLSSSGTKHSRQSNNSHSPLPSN", "assay": "PEK(h) Eurofins kinase panel", "conditions": "Compound concentration 1.0 uM"}, "[8]": {"biological_target": "T2, Muscle, skeletal receptor tyrosine-protein kinase (Homo sapiens) (UniProt O15146)", "T2 sequence (whole entry)": "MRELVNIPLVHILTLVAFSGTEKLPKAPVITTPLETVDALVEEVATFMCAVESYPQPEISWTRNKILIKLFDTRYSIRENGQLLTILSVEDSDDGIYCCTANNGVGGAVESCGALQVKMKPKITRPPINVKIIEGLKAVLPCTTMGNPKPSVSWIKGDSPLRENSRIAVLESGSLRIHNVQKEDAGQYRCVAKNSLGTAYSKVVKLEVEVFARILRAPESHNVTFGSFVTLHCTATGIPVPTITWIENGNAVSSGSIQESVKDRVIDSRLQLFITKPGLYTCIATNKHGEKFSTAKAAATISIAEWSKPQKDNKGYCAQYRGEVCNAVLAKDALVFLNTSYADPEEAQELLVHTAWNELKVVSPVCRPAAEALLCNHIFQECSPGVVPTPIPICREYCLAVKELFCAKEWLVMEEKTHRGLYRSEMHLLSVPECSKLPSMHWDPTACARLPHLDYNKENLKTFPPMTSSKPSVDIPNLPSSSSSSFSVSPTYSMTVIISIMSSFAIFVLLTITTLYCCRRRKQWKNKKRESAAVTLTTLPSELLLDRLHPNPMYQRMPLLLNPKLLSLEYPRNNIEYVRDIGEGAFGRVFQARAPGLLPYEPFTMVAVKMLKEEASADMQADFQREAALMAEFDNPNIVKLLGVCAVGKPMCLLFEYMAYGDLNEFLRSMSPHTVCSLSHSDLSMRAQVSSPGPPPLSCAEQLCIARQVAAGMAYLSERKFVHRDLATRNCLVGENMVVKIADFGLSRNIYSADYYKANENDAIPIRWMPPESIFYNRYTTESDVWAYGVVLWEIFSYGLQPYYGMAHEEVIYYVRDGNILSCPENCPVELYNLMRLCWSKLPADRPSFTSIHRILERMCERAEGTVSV", "assay": "MuSK(h) Eurofins kinase panel", "conditions": "Compound concentration 1.0 uM"}, "[9]": {"biological_target": "Ribosomal protein S6 kinase alpha-5 (Homo sapiens, UniProt O75582)", "sequence (O75582 whole entry)": "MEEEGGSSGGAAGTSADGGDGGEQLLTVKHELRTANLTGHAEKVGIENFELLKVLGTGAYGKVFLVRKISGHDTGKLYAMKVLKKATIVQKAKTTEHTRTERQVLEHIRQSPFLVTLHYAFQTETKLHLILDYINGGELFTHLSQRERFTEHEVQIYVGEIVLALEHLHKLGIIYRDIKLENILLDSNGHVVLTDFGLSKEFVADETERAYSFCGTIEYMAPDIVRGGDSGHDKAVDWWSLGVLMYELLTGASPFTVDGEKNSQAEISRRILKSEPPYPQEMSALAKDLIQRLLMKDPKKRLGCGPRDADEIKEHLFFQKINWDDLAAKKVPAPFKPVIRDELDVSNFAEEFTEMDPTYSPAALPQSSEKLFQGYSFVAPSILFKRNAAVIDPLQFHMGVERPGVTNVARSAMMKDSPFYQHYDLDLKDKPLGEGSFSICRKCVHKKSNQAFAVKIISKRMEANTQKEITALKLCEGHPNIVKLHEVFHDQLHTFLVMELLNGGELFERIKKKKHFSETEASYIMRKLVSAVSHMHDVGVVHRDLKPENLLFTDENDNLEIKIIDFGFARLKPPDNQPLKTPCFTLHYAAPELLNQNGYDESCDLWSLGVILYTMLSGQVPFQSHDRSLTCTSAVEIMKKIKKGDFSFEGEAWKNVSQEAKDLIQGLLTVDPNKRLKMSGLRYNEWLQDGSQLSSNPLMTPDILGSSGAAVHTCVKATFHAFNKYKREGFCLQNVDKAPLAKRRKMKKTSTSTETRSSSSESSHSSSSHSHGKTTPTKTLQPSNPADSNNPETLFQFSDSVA"}, "SW780": {"tested_on": "SW780", "assay": "SW780 cell line Proliferation assay", "format": "functional, Homo sapiens", "conditions": "time 3 day"}, "[10]": {"biological_target": "Calcium/calmodulin-dependent protein kinase type II subunit alpha (Homo sapiens) (UniProt Q9UQM7)", "sequence (Q9UQM7 whole entry)": "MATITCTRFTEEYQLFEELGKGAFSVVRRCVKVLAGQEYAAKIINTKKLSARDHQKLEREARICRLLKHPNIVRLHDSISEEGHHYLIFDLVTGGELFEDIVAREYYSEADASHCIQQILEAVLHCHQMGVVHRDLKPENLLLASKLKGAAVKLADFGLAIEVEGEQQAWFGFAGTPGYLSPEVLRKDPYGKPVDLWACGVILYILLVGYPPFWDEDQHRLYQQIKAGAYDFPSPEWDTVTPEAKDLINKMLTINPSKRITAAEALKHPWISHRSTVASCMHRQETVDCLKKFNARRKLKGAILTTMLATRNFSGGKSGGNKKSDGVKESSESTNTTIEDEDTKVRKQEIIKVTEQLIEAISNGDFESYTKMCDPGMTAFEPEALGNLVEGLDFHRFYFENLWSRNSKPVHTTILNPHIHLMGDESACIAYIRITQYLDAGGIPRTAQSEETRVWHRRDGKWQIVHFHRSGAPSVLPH", "assay": "CaMKIIalpha(h) Eurofins kinase panel", "conditions": "Compound concentration 1.0 uM"}, "[11]": {"biological_target": "T3, Homeodomain-interacting protein kinase 4 (Homo sapiens) (UniProt Q8NE63)", "T3 sequence (whole entry)": "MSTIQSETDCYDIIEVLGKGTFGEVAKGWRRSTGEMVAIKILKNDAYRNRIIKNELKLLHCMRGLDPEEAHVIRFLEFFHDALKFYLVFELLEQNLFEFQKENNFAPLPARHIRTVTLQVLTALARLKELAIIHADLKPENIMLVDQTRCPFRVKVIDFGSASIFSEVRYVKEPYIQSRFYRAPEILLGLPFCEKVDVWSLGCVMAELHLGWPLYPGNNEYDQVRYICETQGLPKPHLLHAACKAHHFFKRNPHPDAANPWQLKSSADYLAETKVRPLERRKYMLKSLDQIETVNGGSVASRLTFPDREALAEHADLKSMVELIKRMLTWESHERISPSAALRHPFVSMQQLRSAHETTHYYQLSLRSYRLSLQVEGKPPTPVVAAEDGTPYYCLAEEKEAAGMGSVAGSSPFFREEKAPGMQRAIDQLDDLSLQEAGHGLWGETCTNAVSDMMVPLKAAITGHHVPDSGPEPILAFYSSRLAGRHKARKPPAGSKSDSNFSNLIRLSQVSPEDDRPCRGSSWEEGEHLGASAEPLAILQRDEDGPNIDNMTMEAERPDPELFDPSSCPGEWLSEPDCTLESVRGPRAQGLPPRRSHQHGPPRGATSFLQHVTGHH", "assay": "HIPK4(h) Eurofins kinase panel", "conditions": "Compound concentration 1.0 uM"}, "[12]": {"biological_target": "Dual specificity protein kinase CLK1 (Homo sapiens) (UniProt P49759)", "sequence (P49759 whole entry, looked up)": "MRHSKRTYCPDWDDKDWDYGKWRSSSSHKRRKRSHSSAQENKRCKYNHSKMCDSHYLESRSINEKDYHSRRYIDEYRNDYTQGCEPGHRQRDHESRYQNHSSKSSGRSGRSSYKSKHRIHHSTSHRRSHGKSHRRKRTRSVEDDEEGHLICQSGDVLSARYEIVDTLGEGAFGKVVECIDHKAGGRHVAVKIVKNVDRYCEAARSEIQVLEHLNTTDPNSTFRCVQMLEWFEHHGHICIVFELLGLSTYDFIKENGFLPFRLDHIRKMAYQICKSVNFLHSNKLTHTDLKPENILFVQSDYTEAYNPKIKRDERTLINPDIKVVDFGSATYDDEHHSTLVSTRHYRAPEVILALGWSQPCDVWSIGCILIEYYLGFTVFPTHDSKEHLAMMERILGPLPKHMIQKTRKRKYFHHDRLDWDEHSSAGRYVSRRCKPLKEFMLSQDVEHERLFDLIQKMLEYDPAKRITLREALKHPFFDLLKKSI", "assay": "CLK1(h) Eurofins kinase panel", "conditions": "Compound concentration 1.0 uM"}, "[13]": {"biological_target": "Serine/threonine-protein kinase pim-2 (Homo sapiens) (UniProt Q9P1W9)", "assay": "Pim-2(h) Eurofins kinase panel", "conditions": "Compound concentration 1.0 uM"}, "[14]": {"biological_target": "Serine/threonine-protein kinase mTOR (Homo sapiens) (UniProt P42345)", "assay": "mTOR(h) Eurofins kinase panel", "conditions": "Compound concentration 1.0 uM"}}, "data": [{"smiles": "CCc1ccccc1C(=O)Nc1n[nH]c2c(C)c(F)c(C3C(C#N)=C(C)N(C)C(C)=C3C#N)cc12", "note": "[BAY-3827]", "values": [{"measurement": "% residual kinase activity", "setting": "[1]", "result": 87, "unit": "%"}, {"measurement": "% residual kinase activity", "setting": "[2]", "result": 96, "unit": "%"}, {"measurement": "% residual kinase activity", "setting": "[3]", "result": 44, "unit": "%"}, {"measurement": "% residual kinase activity", "setting": "[4]", "result": 98, "unit": "%"}, {"measurement": "% residual kinase activity", "setting": "[5]", "result": 100, "unit": "%"}, {"measurement": "% residual kinase activity", "setting": "[6]", "result": 76, "unit": "%"}, {"measurement": "% residual kinase activity", "setting": "[7]", "result": 101, "unit": "%"}, {"measurement": "% residual kinase activity", "setting": "[8]", "result": 91, "unit": "%"}, {"measurement": "IC50", "setting": "[9]", "result": 0.043, "unit": "µM"}, {"measurement": "Cell Proliferation IC50", "setting": "SW780", "result": 10.3, "unit": "µM"}, {"measurement": "% residual kinase activity", "setting": "[10]", "result": 81, "unit": "%"}, {"measurement": "% residual kinase activity", "setting": "[11]", "result": 105, "unit": "%"}, {"measurement": "% residual kinase activity", "setting": "[12]", "result": 108, "unit": "%"}, {"measurement": "% residual kinase activity", "setting": "[13]", "result": 102, "unit": "%"}, {"measurement": "% residual kinase activity", "setting": "[14]", "result": 116, "unit": "%"}]}]}
